Key:
Format in all cases: cell-based
[1] = system: ERK1/2 phosphorylation of p90RSK in HT29 cells; assay: pRSK MSD Assay in HT29 cells; settings: Homo sapiens, HT-29, read-out: ERK1/ERK2 PRSK MSD HT29 EC50
Outline: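 Serum-starved HT29 cells (0.1% FBS overnight) treated with test compound for 120 min at 37° C, then lysed with protease and phosphatase inhibitors. Phospho-p90RSK quantified by MSD sandwich immunoassay: RSK capture antibody, phospho-RSK detection antibody plus Sulfo-tagged antibody, electrochemiluminescence read.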

[2] = system: HCT116 cells (colorectal carcinoma); assay: Inhibition of cancer cell proliferation, HCT116 (CellTiterGlo, 72 hours); settings: Homo sapiens, HCT-116
Outline: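 3000 cells per well exposed to 3-fold serial compound dilutions from 5,000 nM (two-fold solution, stock level) for 72 hours at 37° C. CellTiterGlo luminescence converted to cell number via a standard curve; percent inhibition vs untreated wells, GI50 by curve fit.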

[3] = system: ERK1/2 phosphorylation of p90RSK in HCT116 cells; assay: Detection of total and phospho-RSK by MSD ELISA (HCT116); settings: Homo sapiens, HCT-116, read-out: ERK1/ERK2 PRSK HCT116 EC50
Outline: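 HCT116 cells treated with compound in RPMI/10% FBS for 2 h at 37° C, then lysed. Phospho-RSK (Ser380) and total RSK in lysates measured by MSD sandwich electrochemiluminescence ELISA as a readout of ERK1/2 activity.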

C=CC(=O)Nc1ccccc1Nc1nc(N[C@H]2CCN(C(C)=O)C2)ncc1C(F)(F)F [Compound I-56, (S)—N-(2-((2-((1-Acetylpyrrolidin-3-yl)amino)-5-(trifluoromethyl)pyrimidin-4-yl)amino)phenyl)acrylamide]
EC50 [1]: 101 to 500 nM
GI50 [2]: 101 to 500 nM

C=CC(=O)Nc1cc(OC)ccc1Nc1nc(Nc2cc(OC)nc(N3CCN(C)CC3)c2)ncc1C(F)(F)F [Compound I-334, N-(5-methoxy-2-((2-((2-methoxy-6-(4-methylpiperazin-1-yl)pyridin-4-yl)amino)-5-(trifluoromethyl)pyrimidin-4-yl)amino)phenyl)acrylamide]
EC50 [1]: < 100 nM
EC50 [3]: < 100 nM
GI50 [2]: < 100 nM

C=CC(=O)Nc1ccccc1Nc1nc(Nc2cc(OC)cc(OC)c2)ncc1C(F)(F)F [Compound I-338, N-(2-((2-((3,5-dimethoxyphenyl)amino)-5-(trifluoromethyl)pyrimidin-4-yl)amino)phenyl)acrylamide]
EC50 [1]: < 100 nM
EC50 [3]: < 100 nM
GI50 [2]: < 100 nM

C=CC(=O)Nc1ccccc1Nc1nc(N[C@@H]2CCN(C(C)=O)C2)ncc1C(F)(F)F [Compound I-60, (R)—N-(2-((2-((1-Acetylpyrrolidin-3-yl)amino)-5-(trifluoromethyl)pyrimidin-4-yl)amino)phenyl)acrylamide]
EC50 [1]: > 1000 nM
GI50 [2]: 501 to 999 nM

C=CC(=O)Nc1cc(OC)ccc1Nc1nc(Nc2cc(OC)ncc2C)ncc1C(F)(F)F [Compound I-284, N-(5-Methoxy-2-((2-((2-methoxy-5-methylpyridin-4-yl)amino)-5-(trifluoromethyl)pyrimidin-4-yl)amino)phenyl)acrylamide]
EC50 [1]: < 100 nM
EC50 [3]: < 100 nM
GI50 [2]: 101 to 500 nM

C=CC(=O)Nc1cc(OC)ccc1Nc1nc(Nc2cc(Cl)nc(OC)c2)ncc1Cl [Compound I-245, N-(2-((5-chloro-2-((2-chloro-6-methoxypyridin-4-yl)amino)pyrimidin-4-yl)amino)-5-methoxyphenyl)acrylamide]
EC50 [1]: < 100 nM
GI50 [2]: 101 to 500 nM

C=CC(=O)Nc1ccccc1Nc1nc(Nc2cc(Cl)nc(OC)c2)ncc1Cl [Compound I-246, N-(2-((5-chloro-2-((2-chloro-6-methoxypyridin-4-yl)amino)pyrimidin-4-yl)amino)phenyl)acrylamide]
EC50 [1]: < 100 nM
GI50 [2]: 101 to 500 nM

C=CC(=O)Nc1cc(OC)ccc1Nc1nc(N[C@H]2CCCN(C(=O)CO)C2)ncc1C(F)(F)F [Compound I-64, (S)—N-(2-((2-((1-(2-Hydroxyacetyl)piperidin-3-yl)amino)-5-(trifluoromethyl)pyrimidin-4-yl)amino)-5-methoxyphenyl)acrylamide]
EC50 [1]: < 100 nM
GI50 [2]: < 100 nM

C=CC(=O)Nc1ccccc1Nc1nc(Nc2ccnc(F)c2)ncc1C(F)(F)F [Compound I-287, N-(2-((2-((2-Fluoropyridin-4-yl)amino)-5-(trifluoromethyl)pyrimidin-4-yl)amino)phenyl)acrylamide]
EC50 [1]: < 100 nM
EC50 [3]: 101 to 500 nM

C=CC(=O)Nc1cc(C)ccc1Nc1nc(N[C@H]2CCCN(C(=O)CO)C2)ncc1Cl [Compound I-140, (S)—N-(2-((5-chloro-2-((1-(2-hydroxyacetyl)piperidin-3-yl)amino)pyrimidin-4-yl)amino)-5-methylphenyl)acrylamide]
EC50 [1]: < 100 nM
GI50 [2]: < 100 nM

C=CC(=O)Nc1cc(C)ccc1Nc1nc(Nc2cc(OC)nc(N3CCOCC3)c2)ncc1C(F)(F)F [Compound I-94, N-(2-((2-((2-Methoxy-6-morpholinopyridin-4-yl)amino)-5-(trifluoromethyl)pyrimidin-4-yl)amino)-5-methylphenyl)acrylamide]
EC50 [1]: < 100 nM
GI50 [2]: < 100 nM

C=CC(=O)Nc1ccccc1Nc1nc(Nc2cc(F)ccc2C)ncc1C(F)(F)F [Compound I-285, N-(2-((2-((5-Fluoro-2-methylphenyl)amino)-5-(trifluoromethyl)pyrimidin-4-yl)amino)phenyl)acrylamide]
EC50 [1]: 101 to 500 nM
EC50 [3]: > 1000 nM

C=CC(=O)Nc1ccccc1Nc1nc(Nc2cc(OC)nc(N3CCN(C)CC3)c2)ncc1C(F)(F)F [Compound I-324, N-(2-((2-((2-methoxy-6-(4-methylpiperazin-1-yl)pyridin-4-yl)amino)-5-(trifluoromethyl)pyrimidin-4-yl)amino)phenyl)acrylamide]
EC50 [3]: < 100 nM
GI50 [2]: < 100 nM

C=CC(=O)Nc1ccccc1Nc1nc(N[C@H]2CCN(C(=O)OC)C2)ncc1C(F)(F)F [Compound I-59, (S)-methyl 3-((4-((2-Acrylamidophenyl)amino)-5-(trifluoromethyl)pyrimidin-2-yl)amino)pyrrolidine-1-carboxylate]
EC50 [1]: > 1000 nM
GI50 [2]: 501 to 999 nM

C=CC(=O)Nc1cc(C)ccc1Nc1nc(Nc2cc(C(N)=O)ccn2)ncc1Cl [Compound I-238, 2-((4-((2-acrylamido-4-methylphenyl)amino)-5-chloropyrimidin-2-yl)amino)isonicotinamide]
EC50 [1]: < 100 nM
GI50 [2]: > 1000 nM

C=CC(=O)Nc1ccccc1Nc1nc(Nc2cc(C(N)=O)ccc2C)ncc1C(F)(F)F [Compound I-68, 3-(4-(2-Acrylamidophenylamino)-5-(trifluoromethyl)pyrimidin-2-ylamino)-4-methylbenzamide]
EC50 [1]: < 100 nM
GI50 [2]: < 100 nM

C=CC(=O)Nc1cc(C)ccc1Nc1nc(Nc2cc(OC)nc(N3CCN(CC)CC3)c2)ncc1C(F)(F)F [Compound I-89, N-(2-((2-((2-(4-Ethylpiperazin-1-yl)-6-methoxypyridin-4-yl)amino)-5-(trifluoromethyl)pyrimidin-4-yl)amino)-5-methylphenyl)acrylamide]
EC50 [1]: 101 to 500 nM
GI50 [2]: < 100 nM

C=CC(=O)Nc1cc(C)ccc1Nc1nc(Nc2cc(OC)cc(OC)c2)ncc1C(F)(F)F [Compound I-339, N-(2-((2-((3,5-dimethoxyphenyl)amino)-5-(trifluoromethyl)pyrimidin-4-yl)amino)-5-methylphenyl)acrylamide]
EC50 [3]: 101 to 500 nM
GI50 [2]: < 100 nM

C=CC(=O)Nc1cc(C)ccc1Nc1nc(Nc2cc(N[C@H]3CC[C@@H](O)CC3)nc(OC)c2)ncc1C(F)(F)F [Compound I-326, N-(2-((2-((2-((cis-4-hydroxycyclohexyl)amino)-6-methoxypyridin-4-yl)amino)-5-(trifluoromethyl)pyrimidin-4-yl)amino)-5-methylphenyl)acrylamide]
EC50 [3]: < 100 nM
GI50 [2]: < 100 nM

C=CC(=O)Nc1cc(C)ccc1Nc1nc(Nc2ccnc(F)c2)ncc1C(F)(F)F [Compound I-288, N-(2-((2-((2-Fluoropyridin-4-yl)amino)-5-(trifluoromethyl)pyrimidin-4-yl)amino)-5-methylphenyl)acrylamide]
EC50 [1]: 101 to 500 nM
EC50 [3]: 101 to 500 nM

C=CC(=O)Nc1cc(C)ccc1Nc1nc(Nc2cc(OC)ccc2C)ncc1C(F)(F)F [Compound I-341, N-(2-((2-((5-methoxy-2-methylphenyl)amino)-5-(trifluoromethyl)pyrimidin-4-yl)amino)-5-methylphenyl)acrylamide]
EC50 [1]: 101 to 500 nM
EC50 [3]: > 1000 nM

C=CC(=O)Nc1cc(OC)ccc1Nc1nc(Nc2cc(OC)nc(N3CCN(CC)CC3)c2)ncc1C(F)(F)F [Compound I-88, N-(2-((2-((2-(4-Ethylpiperazin-1-yl)-6-methoxypyridin-4-yl)amino)-5-(trifluoromethyl)pyrimidin-4-yl)amino)-5-methoxyphenyl)acrylamide]
EC50 [1]: 101 to 500 nM
GI50 [2]: < 100 nM

C=CC(=O)Nc1ccccc1Nc1nc(Nc2cc(OC)nc(OC)c2)ncc1C(F)(F)F [Compound I-95, N-(2-((2-((2,6-Dimethoxypyridin-4-yl)amino)-5-(trifluoromethyl)pyrimidin-4-yl)amino)phenyl)acrylamide]
EC50 [1]: < 100 nM
GI50 [2]: < 100 nM

C=CC(=O)Nc1ccccc1Nc1nc(N[C@H]2CCCN(C(C)=O)C2)ncc1Cl [Compound I-115, (S)—N-(2-((2-((1-acetylpiperidin-3-yl)amino)-5-chloropyrimidin-4-yl)amino)phenyl)acrylamide]
EC50 [1]: < 100 nM
GI50 [2]: 101 to 500 nM

C=CC(=O)Nc1ccccc1Nc1nc(N[C@H]2CCN(C(=O)CO)C2)ncc1C(F)(F)F [Compound I-57, (S)—N-(2-((2-((1-(2-Hydroxyacetyl)pyrrolidin-3-yl)amino)-5-(trifluoromethyl)pyrimidin-4-yl)amino)phenyl)acrylamide]
EC50 [1]: 101 to 500 nM
GI50 [2]: 101 to 500 nM

C=CC(=O)Nc1ccccc1Nc1nc(N[C@H]2CCN(S(C)(=O)=O)C2)ncc1C(F)(F)F [Compound I-58, (S)—N-(2-((2-((1-(Methylsulfonyl)pyrrolidin-3-yl)amino)-5-(trifluoromethyl)pyrimidin-4-yl)amino)phenyl)acrylamide]
EC50 [1]: 101 to 500 nM
GI50 [2]: 101 to 500 nM

C=CC(=O)Nc1ccccc1Nc1nc(Nc2cc(N[C@H]3CC[C@@H](O)CC3)nc(OC)c2)ncc1C(F)(F)F [Compound I-292]
EC50 [3]: < 100 nM
GI50 [2]: < 100 nM

C=CC(=O)Nc1cc(C)ccc1Nc1nc(Nc2cc(C)nc(OC)c2)ncc1C(F)(F)F [Compound I-295, N-(2-((2-((2-methoxy-6-methylpyridin-4-yl)amino)-5-(trifluoromethyl)pyrimidin-4-yl)amino)-5-methylphenyl)acrylamide]
EC50 [1]: < 100 nM
EC50 [3]: < 100 nM
